Assay results reported in article PMC3835334 (ACS medicinal chemistry letters, 2013).

Test system: JMAR, MDA-MB-231, SKMEL-28, DRO81-1 and MRC-5 cells
Test: not given
Settings: not given

| SMILES | Cytotoxic activity in words | Increased cytotoxicity compared to 1 |
| --- | --- | --- |
| CC(=O)OCC1=C(C)C[C@H]([C@@H](C)[C@H]2CC[C@H]3[C@@H]4C[C@H]5O[C@]56CC=CC(=O)[C@]6(COC(C)=O)[C@H]4CC[C@]23C)OC1=O [Compound 17, Jaborosalactone V diacetate] | equipotent to withaferin A | – |
| CC(=O)OCC1=C(C)C[C@H]([C@@H](C)[C@H]2CC[C@H]3[C@@H]4C[C@@H](O)C5=CC=CC(=O)[C@]5(COC(C)=O)[C@H]4CC[C@]23C)OC1=O [Compound 18] | abolished | – |
| CC1=C(CO)C(=O)O[C@@H]([C@@H](C)[C@H]2CC[C@H]3[C@@H]4C[C@H]5O[C@]56[C@@H](OC(=O)c5ccc(Cl)cc5)C=CC(=O)[C@]6(CO)[C@H]4CC[C@]23C)C1 [Compound 10] | active | – |
| CC1=C(CO)C(=O)O[C@@H]([C@@H](C)[C@H]2CC[C@H]3[C@@H]4C[C@H]5O[C@]56[C@@H](O)C=C(I)C(=O)[C@]6(CO)[C@H]4CC[C@]23C)C1 [Compound 21] | very weak activity | – |
| CC(=O)OCC1=C(C)C[C@H]([C@@H](C)[C@H]2CC[C@H]3[C@@H]4C[C@H]5O[C@]56[C@@H](OC(=O)N(C)C)C=CC(=O)[C@]6(COC(C)=O)[C@H]4CC[C@]23C)OC1=O [Compound 15] | – | 3–5 times |
| CC1=C(COC(=O)c2ccc(Cl)cc2)C(=O)O[C@@H]([C@@H](C)[C@H]2CC[C@H]3[C@@H]4C[C@H]5O[C@]56[C@@H](O)C=CC(=O)[C@]6(COC(=O)c5ccc(Cl)cc5)[C@H]4CC[C@]23C)C1 [Compound 11] | active | – |

Test system: JMAR, MDA-MB-231, SKMEL-28, DRO81-1 and MRC-5 cells
Test: cells
Settings: read-out: IC50 values against melanoma and carcinoma cells

| SMILES | IC50 [nM] |
| --- | --- |
| CC(=O)OCC1=C(C)C[C@H]([C@@H](C)[C@H]2CC[C@H]3[C@@H]4C[C@@H](O)[C@@]5(Cl)CC=CC(=O)[C@]5(COC(C)=O)[C@H]4CC[C@]23C)OC1=O [Compound 19] | 800 to 2160 |

Same assay, conditions: read-out: IC50 values over all cell lines tested

| SMILES | IC50 [nM] |
| --- | --- |
| CCC(=O)OCC1=C(C)C[C@H]([C@@H](C)[C@H]2CC[C@H]3[C@@H]4C[C@H]5O[C@]56[C@@H](OC(=O)CC)C=CC(=O)[C@]6(COC(=O)CC)[C@H]4CC[C@]23C)OC1=O [Compound 9, withalongolide A 4,19,27-propionate] | 130 to 1000 |
| CC(=O)OCC1=C(C)C[C@H]([C@@H](C)[C@H]2CC[C@H]3[C@@H]4C[C@H]5O[C@]56[C@@H]5C=CC(=O)[C@]6(COC(=O)CC/C=C/CCC(=O)O5)[C@H]4CC[C@]23C)OC1=O [Compound 24] | 205 to 965 |
| CC1=C(COC(=O)c2ccc(Cl)cc2)C(=O)O[C@@H]([C@@H](C)[C@H]2CC[C@H]3[C@@H]4C[C@H]5O[C@]56[C@@H](OC(=O)c5ccc(Cl)cc5)C=CC(=O)[C@]6(COC(=O)c5ccc(Cl)cc5)[C@H]4CC[C@]23C)C1 [Compound 13] | > 10000 |
| CC1=C(COC(=O)c2ccc(Cl)cc2)C(=O)O[C@@H]([C@@H](C)[C@H]2CC[C@H]3[C@@H]4C[C@H]5O[C@]56[C@@H](OC(=O)c5ccc(Cl)cc5)C=CC(=O)[C@]6(CO)[C@H]4CC[C@]23C)C1 [Compound 12] | > 10000 |
| CC(=O)OCC1=C(C)C[C@H]([C@@H](C)[C@H]2CC[C@H]3[C@@H]4C[C@@H](O)C5=CC=CC(=O)[C@]5(COC(C)=O)[C@H]4CC[C@]23C)OC1=O [Compound 18] | > 10000 |
| CC(=O)OC[C@]12C(=O)C=C[C@H](OC(=O)c3ccc(Cl)cc3)[C@]13O[C@@H]3C[C@H]1[C@@H]3CC[C@H]([C@H](C)[C@H]4CC(C)=C(COC(=O)c5ccc(Cl)cc5)C(=O)O4)[C@@]3(C)CC[C@@H]12 [Compound 16] | > 10000 |
| CC(=O)OCC1=C(C)C[C@H]([C@@H](C)[C@H]2CC[C@H]3[C@@H]4C[C@@H](OC(C)=O)C5=CC=CC(=O)[C@]5(COC(C)=O)[C@H]4CC[C@]23C)OC1=O [Compound 20] | > 10000 |
